What was measured:
[1] = system: weed plants such as Sinapis alba, Chrysanthemum segetum, Avena sativa, Stellaria media, Echinochloa crus-galli, Lolium multiflorum, Setaria viridis, Abutilon …; test: Pre-emergence effect on weeds (greenhouse pot test, visual scoring); assay type: in vivo; settings: applied pre-emergence at a rate of 0.3 kg or less of active substance per hectare; scored after 3 to 4 weeks in comparison to untreated controls
[2] = system: weed plants such as Sinapis alba, Echinochloa crus-galli, Lolium multiflorum, Chrysanthemum segetum, Setaria viridis, Abutilon theophrasti, Amaranthus …; test: Post-emergence effect on weeds (greenhouse pot test, visual scoring); assay type: in vivo; settings: applied post-emergence (three-leaf stage) at a rate of 0.3 kg or less of active substance per hectare; scored after about 3 to 4 weeks in comparison to untreated controls

| Structure (SMILES) | herbicidal action against weed plants (visual scoring of plant damage or emergence damage) [1] | herbicidal action against weed plants (effect scored visually) [2] |
| --- | --- | --- |
| CCOc1nn(C(=O)NS(=O)(=O)c2c(I)cccc2OCC(F)F)c(=O)n1C [Compound 1.504] | very good herbidical action | very good herbicidal action |
| COc1nn(C(=O)NS(=O)(=O)c2ccccc2I)c(=O)n1C1CC1 [Compound 1.008] | very good herbidical action | very good herbicidal action |
| CCOc1nn(C(=O)NS(=O)(=O)c2c(I)cccc2OC(F)(F)F)c(=O)n1C1CC1 [Compound 1.450] | very good herbidical action | very good herbicidal action |
| CCCOc1cccc(I)c1S(=O)(=O)NC(=O)n1nc(OCCC)n(C)c1=O [Compound 1.235] | very good herbidical action | very good herbicidal action |
| Cc1cc(I)c(S(=O)(=O)NC(=O)n2nc(OC(C)C)n(C)c2=O)cc1C [Compound 1.865] | very good herbidical action | very good herbicidal action |
| CC(C)Oc1nn(C(=O)NS(=O)(=O)c2ccc(Cl)cc2I)c(=O)n1C [Compound 1.872] | very good herbidical action | very good herbicidal action |
| CCCOc1nn(C(=O)NS(=O)(=O)c2c(OC)ccc(Cl)c2I)c(=O)n1C1CC1 [Compound 1.822] | very good herbidical action | very good herbicidal action |
| CCCOc1cccc(I)c1S(=O)(=O)NC(=O)n1nc(OC)n(C)c1=O [Compound 1.231] | very good herbidical action | very good herbicidal action |
| COc1nn(C(=O)NS(=O)(=O)c2c(I)cccc2OS(=O)(=O)N(C)C)c(=O)n1C1CC1 [Compound 1.754] | very good herbidical action | very good herbicidal action |
| CCCCOc1cccc(I)c1S(=O)(=O)NC(=O)n1nc(OCC)n(C2CC2)c1=O [Compound 1.279] | very good herbidical action | very good herbicidal action |
| CCOc1nn(C(=O)NS(=O)(=O)c2ccc(Cl)cc2I)c(=O)n1C1CC1 [Compound 1.874] | very good herbidical action | very good herbicidal action |
| CCCOc1nn(C(=O)NS(=O)(=O)c2c(I)cccc2OS(C)(=O)=O)c(=O)n1C [Compound 1.713] | very good herbidical action | very good herbicidal action |
| CCOc1nn(C(=O)NS(=O)(=O)c2c(I)cccc2OC(C)C(F)(F)F)c(=O)n1C1CC1 (centres unmarked) [Compound 1.532] | very good herbidical action | very good herbicidal action |
| COc1nn(C(=O)NS(=O)(=O)c2c(I)cccc2OC(F)F)c(=O)n1C1CC1 [Compound 1.467] | very good herbidical action | very good herbicidal action |
| COc1nn(C(=O)NS(=O)(=O)c2ccc(C)c(F)c2I)c(=O)n1C1CC1 [Compound 1.859] | very good herbidical action | very good herbicidal action |
| CCCOc1nn(C(=O)NS(=O)(=O)c2c(I)cccc2C(F)(F)F)c(=O)n1C [Compound 1.137] | very good herbidical action | very good herbicidal action |
| CC(C)Oc1nn(C(=O)NS(=O)(=O)c2c(F)cccc2I)c(=O)n1C [Compound 1.024] | very good herbidical action | very good herbicidal action |
| COc1nn(C(=O)NS(=O)(=O)c2cc(C)c(C)cc2I)c(=O)n1C1CC1 [Compound 1.866] | very good herbidical action | very good herbicidal action |
| CCCOc1nn(C(=O)NS(=O)(=O)c2cc(C)c(C)cc2I)c(=O)n1C1CC1 [Compound 1.868] | very good herbidical action | very good herbicidal action |
| CC(C)Oc1nn(C(=O)NS(=O)(=O)c2cc(C(F)(F)F)ccc2I)c(=O)n1C [Compound 1.838] | very good herbidical action | very good herbicidal action |
| CCCCOc1cccc(I)c1S(=O)(=O)NC(=O)n1nc(OC)n(C2CC2)c1=O [Compound 1.278] | very good herbidical action | very good herbicidal action |
| CC(C)Oc1cccc(I)c1S(=O)(=O)NC(=O)n1nc(OC(C)C)n(C)c1=O [Compound 1.256] | very good herbidical action | very good herbicidal action |
| COc1nn(C(=O)NS(=O)(=O)c2c(I)cccc2OC(F)F)c(=O)n1C [Compound 1.460] | very good herbidical action | very good herbicidal action |
| CCOc1nn(C(=O)NS(=O)(=O)c2c(I)cccc2SC)c(=O)n1C1CC1 [Compound 1.585] | very good herbidical action | very good herbicidal action |
| COc1nn(C(=O)NS(=O)(=O)c2c(I)cccc2OCC(F)F)c(=O)n1C1CC1 [Compound 1.508] | very good herbidical action | very good herbicidal action |
| CCCCc1ccc(S(=O)(=O)NC(=O)n2nc(OCC)n(C)c2=O)c(I)c1 [Compound 1.883] | very good herbidical action | very good herbicidal action |
| COc1nn(C(=O)NS(=O)(=O)c2c(I)cccc2SC)c(=O)n1C [Compound 1.579] | very good herbidical action | very good herbicidal action |
| CCOc1nn(C(=O)NS(=O)(=O)c2c(I)cccc2OC)c(=O)n1C1CC1 [Compound 1.191, 4-Cyclopropyl-3-ethoxy-N-[(2-iodo-6-methoxyphenyl)sulfonyl]-5-oxo-4,5-dihydro-1H-1,2,4-triazole-1-carboxamide] | very good herbidical action | very good herbicidal action |
